For 62 molecules, maximum recommended daily dose (mmol/kg-bw/day) results are on record in PubChem BioAssay AID1195 (EPA DSSTox, 2008).

The test system of the data set is human maximum recommended daily dose, FDA database. In words: DSSTox (FDAMDD) FDA Maximum (Recommended) Daily Dose Database. The conditions noted are these: active compounds read low. The essentials:
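MRDD values come from clinical trials with daily oral dosing, usually for 3–12 months, for the average adult, in mg/day converted to mg/kg-bw/day assuming 60 kg. Antineoplastic mg/m2 doses are divided by 37. Activity score maps log10(1/MRDD mmol) onto 1–100.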

Where [1] appears, read: TherapeuticCategory: cardiotonic.
[2] abbreviates: TherapeuticCategory: diagnostic aid.
[3] abbreviates: TherapeuticCategory: antibacterial.
Where [4] appears, read: TherapeuticCategory: antidepressant.
Setting [5] is: TherapeuticCategory: antihypertensive.
Setting [6] is: TherapeuticCategory: anticholinergic.
Setting [7] is: TherapeuticCategory: antineoplastic.
[8] abbreviates: TherapeuticCategory: glucocorticoid.

With `CC(=O)N[C@H]1[C@H]([C@H](O)[C@H](O)CO)OC(C(=O)O)=C[C@@H]1N=C(N)N`, the maximum recommended daily dose (mmol/kg-bw/day) (TherapeuticCategory: neuraminidase inhibitors) is 0.001.

`CCC[N+]12[C@@H]3C[C@]45c6ccccc6N(C)[C@H]4[C@H]1C[C@H](C3[C@@H]5O)[C@H](CC)[C@H]2O` (some centres not stated): the maximum recommended daily dose (mmol/kg-bw/day) (TherapeuticCategory: antiarryhthmic) was 0.0036.

Regarding `CC(S)C(=O)NCC(=O)O` (configuration not stated), the maximum recommended daily dose (mmol/kg-bw/day) (TherapeuticCategory: hepatoprotectant, mucolytic, antidote to heavy metal poisoning) was 0.204.

`OCCN1CCN(CCCN2c3ccccc3Sc3ccc(C(F)(F)F)cc32)CC1`: where the note is “TherapeuticCategory: antispsychotic”, the maximum recommended daily dose (mmol/kg-bw/day) is 0.000761.

In the case of `COc1ccc2c(c1)[C@]13CCCC[C@@H]1[C@H](C2)N(C)CC3`, the maximum recommended daily dose (mmol/kg-bw/day) (TherapeuticCategory: antitussive) was 0.00737.

For the molecule `CC(c1cc2ccccc2s1)N(O)C(N)=O` (configuration not stated), the maximum recommended daily dose (mmol/kg-bw/day) (TherapeuticCategory: antiasthmatic, anti inflammatry) is 0.169.

On to `CC(=O)O[C@H]1C[C@H](O[C@H]2[C@@H](O)C[C@H](O[C@H]3[C@@H](O)C[C@H](OC4CC[C@@]5(C)C(CC[C@@H]6[C@@H]5CC[C@]5(C)[C@@H](C7=CC(=O)OC7)[C@@H](O)C[C@]65O)C4)O[C@@H]3C)O[C@@H]2C)O[C@H](C)[C@H]1O[C@@H]1O[C@H](CO)[C@@H](O)[C@H](O)[C@H]1O` (some centres not stated), for which the maximum recommended daily dose (mmol/kg-bw/day) under setting [1] was 3.38e-05.

As to `CNC[C@H](O)[C@@H](O)[C@H](O)[C@H](O)CO`, the maximum recommended daily dose (mmol/kg-bw/day) under setting [2] is 0.512.

Consider `CC(C)CC(N(C)C)C1(c2ccc(Cl)cc2)CCC1` (configuration not stated), for which, under “TherapeuticCategory: anorexic”, the maximum recommended daily dose (mmol/kg-bw/day) was 0.000893.

With `O=C(O)CN(CCN(CC(=O)O)CC(=O)O)CC(=O)O`, the maximum recommended daily dose (mmol/kg-bw/day) (TherapeuticCategory: pharmaceutic aid) was 0.24.

`CC(C)(C)NC[C@H](O)COc1ccccc1C1CCCC1`: the maximum recommended daily dose (mmol/kg-bw/day) (TherapeuticCategory: antihypertensive, antianginal, antiarrhythmic) is 0.00456.

Take `NC[C@@H]1CC[C@@H](N)[C@@H](O[C@H]2[C@H](O)[C@@H](O[C@H]3O[C@H](CO)[C@@H](O)[C@H](N)[C@H]3O)[C@H](N)C[C@@H]2N)O1`: under setting [3], the maximum recommended daily dose (mmol/kg-bw/day) is 0.00664.

For `CN1Cc2c(N)cccc2C(c2ccccc2)C1` (configuration not stated), under setting [4], the maximum recommended daily dose (mmol/kg-bw/day) is 0.014.

As to `Cn1cc[nH]c1=S`, the maximum recommended daily dose (mmol/kg-bw/day) (TherapeuticCategory: antihyperthyroid) was 0.00876.

In the case of `CCN(CC)C(=S)S`, the maximum recommended daily dose (mmol/kg-bw/day) (TherapeuticCategory: immunomodulator, chelating agent) is 0.0584.

On to `COc1c2occc2cc2ccc(=O)oc12`, for which the maximum recommended daily dose (mmol/kg-bw/day) (TherapeuticCategory: pigmentation agent) is 0.00278.

Take `CN[C@H]1[C@@H](O)[C@H](O[C@H]2O[C@H]([C@H](C)N)CC[C@H]2N)[C@@H](N)[C@H](O)[C@@H]1OC`: the maximum recommended daily dose (mmol/kg-bw/day) under setting [3] is 0.0191.

Turning to `CC(CCc1ccccc1)NC(C)C(O)c1ccc(O)cc1` (configuration not stated), the maximum recommended daily dose (mmol/kg-bw/day) (TherapeuticCategory: vasodilator) was 0.00267.

`CC(=O)O[C@H]1C[C@H](O[C@H]2[C@@H](O)C[C@H](O[C@H]3[C@@H](O)C[C@H](OC4CC[C@@]5(C)[C@H](CC[C@@H]6[C@@H]5CC[C@]5(C)[C@@H](C7=CC(=O)OC7)CC[C@]65O)C4)O[C@@H]3C)O[C@@H]2C)O[C@H](C)[C@H]1O[C@@H]1O[C@H](CO)[C@@H](O)[C@H](O)[C@H]1O` (some centres not stated): under setting [1], the maximum recommended daily dose (mmol/kg-bw/day) was 3.44e-05.

Regarding `COc1cc2nc(N3CCN(C(=O)C4COc5ccccc5O4)CC3)nc(N)c2cc1OC` (configuration not stated), the maximum recommended daily dose (mmol/kg-bw/day) under setting [5] is 0.000591.

`CN1CCN(C(c2ccccc2)c2ccccc2)CC1`: for the setting “TherapeuticCategory: antiemetic”, the maximum recommended daily dose (mmol/kg-bw/day) was 0.0125.

In the case of `CCCCC(=O)OCC(=O)[C@@]1(O)[C@H](C)C[C@H]2[C@@H]3CCC4=CC(=O)C=C[C@]4(C)[C@@]3(F)[C@@H](O)C[C@@]21C`, the maximum recommended daily dose (mmol/kg-bw/day) (TherapeuticCategory: glucocorticoid, anti inflammatory) was 0.000315.

Take `CC#C[C@]1(O)CC[C@H]2[C@@H]3CCC4=CC(=O)CCC4=C3[C@@H](c3ccc(N(C)C)cc3)C[C@@]21C`: the maximum recommended daily dose (mmol/kg-bw/day) (TherapeuticCategory: abortifacient) is 0.0233.

Turning to `OCc1ccccc1`, the maximum recommended daily dose (mmol/kg-bw/day) (TherapeuticCategory: none) was 0.0462.

As to `Cc1nnc(SCC2=C(C(=O)O)N3C(=O)[C@@H](NC(=O)Cn4cnnn4)[C@H]3SC2)s1`, the maximum recommended daily dose (mmol/kg-bw/day) under setting [3] is 0.147.

Turning to `CN1c2cc(O)c(N=NC(N)=O)cc2CC1S(=O)(=O)O` (configuration not stated), the maximum recommended daily dose (mmol/kg-bw/day) (TherapeuticCategory: hemostatic) is 0.00931.

For `CN1[C@@H]2CC[C@H]1CC(OC(=O)C(O)c1ccccc1)C2` (some centres not stated), the maximum recommended daily dose (mmol/kg-bw/day) under setting [6] was 0.0018.

In the case of `S=P(N1CC1)(N1CC1)N1CC1`, the maximum recommended daily dose (mmol/kg-bw/day) under setting [7] is 0.00211.

Take `CN[C@@H]1[C@H](O)[C@H](NC)[C@H]2O[C@@]3(O)C(=O)C[C@@H](C)O[C@H]3O[C@@H]2[C@H]1O`: the maximum recommended daily dose (mmol/kg-bw/day) under setting [3] is 0.201.

For `CN(C)CCCC1(c2ccc(F)cc2)OCc2cc(C#N)ccc21` (configuration not stated), the maximum recommended daily dose (mmol/kg-bw/day) under setting [4] is 0.00308.

For the molecule `C[C@H]1C[C@@H]2[C@H]([C@@H](O)C[C@@]3(C)[C@H]2CC[C@]3(O)C(=O)COC(=O)CCC(=O)O)[C@@]2(C)C=CC(=O)C=C12`, the maximum recommended daily dose (mmol/kg-bw/day) under setting [8] was 0.0084.

Take `NC[C@H](O)c1ccc(O)c(O)c1`: where the note is “TherapeuticCategory: adrenergic, antihypotensive”, the maximum recommended daily dose (mmol/kg-bw/day) is 0.000394.

Consider `Nc1ncnc2c1ncn2[C@@H]1O[C@H](CO)[C@@H](O)[C@H]1O`, for which, for the setting “TherapeuticCategory: antiarrhythmic”, the maximum recommended daily dose (mmol/kg-bw/day) is 0.00748.

`CC(Oc1c(Cl)cccc1Cl)C1=NCCN1` (configuration not stated): the maximum recommended daily dose (mmol/kg-bw/day) under setting [5] is 0.000154.

As for `NS(=O)(=O)c1cc(C(=O)O)cc(N2CCCC2)c1Oc1ccccc1`, under “TherapeuticCategory: diuretic”, the maximum recommended daily dose (mmol/kg-bw/day) is 0.000552.

Turning to `CC(=O)N(CC(C)C(=O)O)c1c(I)cc(I)c(N)c1I` (configuration not stated), under setting [2], the maximum recommended daily dose (mmol/kg-bw/day) is 0.122.

In the case of `CNC1(c2ccccc2Cl)CCCCC1=O` (configuration not stated), where the note is “TherapeuticCategory: anesthetic”, the maximum recommended daily dose (mmol/kg-bw/day) was 0.00841.

`CCCCCCCCCCC(=O)O[C@H]1CC[C@H]2[C@@H]3CCc4cc(O)ccc4[C@H]3CC[C@]12C`: the maximum recommended daily dose (mmol/kg-bw/day) (TherapeuticCategory: estrogen) is 0.00113.

`CCC(C)C(CC)C(=O)NC(N)=O` (configuration not stated): the maximum recommended daily dose (mmol/kg-bw/day) (TherapeuticCategory: hypnotic) is 0.0358.

Take `CNCC12CCC(c3ccccc31)c1ccccc12`: the maximum recommended daily dose (mmol/kg-bw/day) (TherapeuticCategory: anxiolytic, skeletal muscle relaxant) was 0.00401.

`COc1cccc2c1C(=O)c1c(O)c3c(c(O)c1C2=O)C[C@@](O)(C(=O)CO)C[C@@H]3O[C@H]1C[C@H](N)[C@@H](O)[C@H](C)O1`: the maximum recommended daily dose (mmol/kg-bw/day) under setting [7] is 0.00447.

Take `CC1(O)CCC(C(C)(C)O)CC1` (configuration not stated): the maximum recommended daily dose (mmol/kg-bw/day) (TherapeuticCategory: cis form hydrate as expectorant) is 0.116.

For the molecule `OC(CCN1CCCCC1)(c1ccccc1)C1CCCCC1` (configuration not stated), for the setting “TherapeuticCategory: anticholinergic, antiparkinsonian”, the maximum recommended daily dose (mmol/kg-bw/day) is 0.000829.

With `C[C@]12CCC(=O)C=C1CC[C@@H]1[C@@H]2C(=O)C[C@@]2(C)[C@H]1CC[C@]2(O)C(=O)CO`, the maximum recommended daily dose (mmol/kg-bw/day) under setting [8] was 0.0139.

As for `O=C(O)c1cc(O)c2c(c1)[C@H]([C@H]1c3cc(C(=O)O)cc(O)c3C(=O)c3c(O[C@@H]4O[C@H](CO)[C@@H](O)[C@H](O)[C@H]4O)cccc31)c1cccc(O[C@@H]3O[C@H](CO)[C@@H](O)[C@H](O)[C@H]3O)c1C2=O`, under “TherapeuticCategory: cathartic”, the maximum recommended daily dose (mmol/kg-bw/day) was 0.0194.

`CN1CC[C@]23c4c5ccc(O)c4O[C@H]2C(=O)CC[C@H]3[C@H]1C5`: the maximum recommended daily dose (mmol/kg-bw/day) (TherapeuticCategory: analgesic) was 0.0014.

On to `O=c1[nH]cnc2[nH]ncc12`, for which, where the note is “TherapeuticCategory: antiurolithic”, the maximum recommended daily dose (mmol/kg-bw/day) is 0.0977.

Take `O=C1NCC2(CCN(CCc3ccccc3)CC2)O1`: the maximum recommended daily dose (mmol/kg-bw/day) (TherapeuticCategory: bronchodilator, alpha adrenergic blocker) was 0.0307.

Regarding `CCOC(=O)n1ccn(C)c1=S`, the maximum recommended daily dose (mmol/kg-bw/day) (TherapeuticCategory: thyroid inhibitor) is 0.00537.

Take `NC(=O)CC[C@H](N)C(=O)O`: the maximum recommended daily dose (mmol/kg-bw/day) (TherapeuticCategory: none) was 1.37.

`C[N+](C)(C)CCOC(=O)CCC(=O)OCC[N+](C)(C)C`: the maximum recommended daily dose (mmol/kg-bw/day) (TherapeuticCategory: skeletal muscle relaxant) is 0.00304.

For the molecule `CO[C@@]1(NC(=O)C(C(=O)O)c2ccc(O)cc2)C(=O)N2C(C(=O)O)=C(CSc3nnnn3C)CO[C@@H]21` (some centres not stated), the maximum recommended daily dose (mmol/kg-bw/day) under setting [3] is 0.128.

As for `C[N+]1(C)CCC(=C(c2ccccc2)c2ccccc2)CC1`, the maximum recommended daily dose (mmol/kg-bw/day) under setting [6] was 0.0341.

Take `C#C[C@]1(O)CC[C@H]2[C@@H]3CCC4=CC(=O)CC[C@@H]4[C@H]3CC[C@@]21C`: the maximum recommended daily dose (mmol/kg-bw/day) (TherapeuticCategory: progestogen) was 5.6e-05.

As for `NC[C@@H]1O[C@H](O[C@H]2[C@@H](O)[C@H](O[C@@H]3[C@@H](O)[C@H](N)C[C@H](N)[C@H]3O[C@H]3O[C@H](CO)[C@@H](O)C[C@H]3N)O[C@@H]2CO)[C@H](N)[C@@H](O)[C@@H]1O[C@H]1O[C@H](CO)[C@@H](O)[C@H](O)[C@@H]1O`, under setting [3], the maximum recommended daily dose (mmol/kg-bw/day) is 0.0219.

As for `O=C1O[C@H]([C@@H](O)CO)C(O)=C1O`, the maximum recommended daily dose (mmol/kg-bw/day) (TherapeuticCategory: vitamin C deficiency) was 0.568.

In the case of `CN1CCC(=C2c3ccccc3C=Cc3ccccc32)CC1`, the maximum recommended daily dose (mmol/kg-bw/day) (TherapeuticCategory: antihistaminic, antipruritic) is 0.00174.

Turning to `O=C1C(=O)c2ccccc2C(O)=C1C1CCC(c2ccc(Cl)cc2)CC1` (configuration not stated), the maximum recommended daily dose (mmol/kg-bw/day) (TherapeuticCategory: antiprotozoal, antimalarial, antifungal) was 0.102.

For the molecule `COC(=O)[C@H]1[C@H]2C[C@@H]3c4[nH]c5ccccc5c4CCN3C[C@H]2C[C@@H](OC(=O)c2cc(OC)c(OC)c(OC)c2)[C@@H]1OC`, the maximum recommended daily dose (mmol/kg-bw/day) under setting [5] is 2.89e-05.

With `CC(=O)NCc1c(I)c(NC(C)=O)c(I)c(C(=O)O)c1I`, the maximum recommended daily dose (mmol/kg-bw/day) under setting [2] is 0.159.

For the molecule `CN(C(=O)C(Cl)Cl)c1ccc(O)cc1`, the maximum recommended daily dose (mmol/kg-bw/day) (TherapeuticCategory: antiamebic) was 0.107.

Consider `Cc1ccccc1-n1c(C)nc2ccccc2c1=O`, for which, where the note is “TherapeuticCategory: hypnotic, sedative”, the maximum recommended daily dose (mmol/kg-bw/day) is 0.02.
